Data: US12077503B2, “Substituted cyclic amides and their use as herbicides” (FMC CORPORATION, priority 2015, dated 2024)
Where two headings read alike, the source gives them in different places.

Columns and labels:
Format in all cases: in vivo
[1] = test system: pigweed (Amaranthus retroflexus); test: Test A preemergence; details: Amaranthus retroflexus, pre-emergence, 240 h; for pest or weed control at 125 g/ha: 125 g ai/ha, Preemergence, visual injury rating after approximately 10 d, read-out: Pigweed plant response rating (0 to 100 scale, 0 is no effect, 100 is complete control); for pest or weed control at 500 g/ha: 500 g ai/ha, preemergence, visual injury rating about 10 d after treatment, 0 to 100 scale (0 no effect, 100 complete control), read-out: Pigweed plant response rating
[2] = test system: ragweed (common ragweed, Ambrosia elatior); test: Test A preemergence; details: Ambrosia artemisiifolia, pre-emergence, 240 h; for pest or weed control at 125 g/ha: 125 g ai/ha, Preemergence, visual injury rating after approximately 10 d, read-out: Ragweed plant response rating (0 to 100 scale, 0 is no effect, 100 is complete control); for pest or weed control at 500 g/ha: 500 g ai/ha, preemergence, visual injury rating about 10 d after treatment, 0 to 100 scale (0 no effect, 100 complete control), read-out: Ragweed plant response rating
Procedure, shortened: (§1)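 Seeded soil received test chemicals as a preemergence directed spray, and seedlings at one to two leaves, 2–10 cm tall, received them postemergence, in a non-phytotoxic, surfactant-containing solvent mixture. Pots were held in a greenhouse for approximately 10 d, then rated for injury from 0, no effect, to 100, complete control.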

[3] = test system: barnyardgrass (Echinochloa crus-galli); test: Test A preemergence; details: Echinochloa crus-galli, pre-emergence, 240 h; for pest or weed control at 125 g/ha: 125 g ai/ha, Preemergence, visual injury rating after approximately 10 d, read-out: Barnyardgrass plant response rating (0 to 100 scale, 0 is no effect, 100 is complete control); for pest or weed control at 500 g/ha: 500 g ai/ha, preemergence, visual injury rating about 10 d after treatment, 0 to 100 scale (0 no effect, 100 complete control), read-out: Barnyardgrass plant response rating
Procedure, shortened: as §1

Kochia (Kochia scoparia) [4] = test: Test A preemergence; details: Bassia scoparia, pre-emergence, 240 h; for pest or weed control at 125 g/ha: 125 g ai/ha, Preemergence, visual injury rating after approximately 10 d, read-out: Kochia plant response rating (0 to 100 scale, 0 is no effect, 100 is complete control); for pest or weed control at 500 g/ha: 500 g ai/ha, preemergence, visual injury rating about 10 d after treatment, 0 to 100 scale (0 no effect, 100 complete control), read-out: Kochia plant response rating
Procedure, shortened: as §1

[5] = test system: ryegrass, Italian (Italian ryegrass, Lolium multiflorum); test: Test A preemergence; details: Lolium multiflorum, pre-emergence, 240 h; for pest or weed control at 125 g/ha: 125 g ai/ha, Preemergence, visual injury rating after approximately 10 d, read-out: Ryegrass, Italian plant response rating (0 to 100 scale, 0 is no effect, 100 is complete control); for pest or weed control at 500 g/ha: 500 g ai/ha, preemergence, visual injury rating about 10 d after treatment, 0 to 100 scale (0 no effect, 100 complete control), read-out: Ryegrass, Italian plant response rating
Procedure, shortened: as §1

[6] = test system: giant foxtail (Setaria faberii); test: Test A preemergence; details: Setaria faberi, pre-emergence, 240 h; for pest or weed control at 125 g/ha: 125 g ai/ha, Preemergence, visual injury rating after approximately 10 d, read-out: Foxtail, Giant plant response rating (0 to 100 scale, 0 is no effect, 100 is complete control); for pest or weed control at 500 g/ha: 500 g ai/ha, preemergence, visual injury rating about 10 d after treatment, 0 to 100 scale (0 no effect, 100 complete control), read-out: Foxtail, Giant plant response rating
Procedure, shortened: as §1

[7] = test system: sedge, umbrella (small-flower umbrella sedge, Cyperus difformis); test: Test B flooded paddy test; details: Cyperus difformis, 250 g ai/ha, Flood, read-out: Sedge, Umbrella plant response rating
Procedure, shortened: (§2)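 Greenhouse paddy pots with 2-leaf stage plants received compound by direct addition to floodwater 3 cm deep, kept at that level. Scored visually at 13–15 d versus controls (0 no effect; 100 complete control).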

[8] = test system: barnyardgrass (Echinochloa crus-galli); test: Test B flooded paddy test; details: Echinochloa crus-galli, 250 g ai/ha, Flood, read-out: Barnyardgrass plant response rating
Procedure, shortened: as §2

[9] = test system: ducksalad (Heteranthera limosa); test: Test B flooded paddy test; details: Heteranthera limosa, 250 g ai/ha, Flood, read-out: Ducksalad plant response rating
Procedure, shortened: as §2

rice (Oryra sativa) = test: Test B flooded paddy test; details: Oryza sativa, 250 g ai/ha, Flood, read-out: Rice plant response rating
Procedure, shortened: as §2

[10] = test system: wheat (Triticum aestivum); test: Test A postemergence; details: Triticum aestivum, post-emergence, 240 h, read-out: Plant response rating, Wheat; for plant injury at 125 g/ha: 125 g ai/ha, Postemergence, visual injury after approximately 10 d, 0 to 100 scale where 0 is no effect and 100 is complete control
Procedure, shortened: as §1

[11] = test system: pigweed (Amaranthus retroflexus); test: Test A postemergence; details: Amaranthus retroflexus, post-emergence, 240 h, read-out: Plant response rating, Pigweed; for pest or weed control at 125 g/ha: 125 g ai/ha, Postemergence, visual injury after approximately 10 d, 0 to 100 scale where 0 is no effect and 100 is complete control
Procedure, shortened: as §1

[12] = test system: ragweed (common ragweed, Ambrosia elatior); test: Test A postemergence; details: Ambrosia artemisiifolia, post-emergence, 240 h, read-out: Plant response rating, Ragweed; for pest or weed control at 125 g/ha: 125 g ai/ha, Postemergence, visual injury after approximately 10 d, 0 to 100 scale where 0 is no effect and 100 is complete control
Procedure, shortened: as §1

[13] = test system: blackgrass (Alopecurus myosuroides); test: Test A postemergence; details: Alopecurus myosuroides, post-emergence, 240 h, read-out: Plant response rating, Blackgrass; for pest or weed control at 125 g/ha: 125 g ai/ha, Postemergence, visual injury after approximately 10 d, 0 to 100 scale where 0 is no effect and 100 is complete control
Procedure, shortened: as §1

[14] = test system: barnyardgrass (Echinochloa crus-galli); test: Test A postemergence; details: Echinochloa crus-galli, post-emergence, 240 h, read-out: Plant response rating, Barnyardgrass; for pest or weed control at 125 g/ha: 125 g ai/ha, Postemergence, visual injury after approximately 10 d, 0 to 100 scale where 0 is no effect and 100 is complete control
Procedure, shortened: as §1

corn (Zea mays) = test: Test A postemergence; details: Zea mays, post-emergence, 240 h; for Corn plant response rating (crop injury, 0 = no effect, 100 = complete kill) at 125 g/ha: 125 g ai/ha, Postemergence, visual injury after approximately 10 d, 0 to 100 scale where 0 is no effect and 100 is complete control
Procedure, shortened: as §1

Kochia (Kochia scoparia) [15] = test: Test A postemergence; details: Bassia scoparia, post-emergence, 240 h, read-out: Plant response rating, Kochia; for pest or weed control at 125 g/ha: 125 g ai/ha, Postemergence, visual injury after approximately 10 d, 0 to 100 scale where 0 is no effect and 100 is complete control
Procedure, shortened: as §1

[16] = test system: ryegrass, Italian (Italian ryegrass, Lolium multiflorum); test: Test A postemergence; details: Lolium multiflorum, post-emergence, 240 h, read-out: Plant response rating, Ryegrass, Italian; for pest or weed control at 125 g/ha: 125 g ai/ha, Postemergence, visual injury after approximately 10 d, 0 to 100 scale where 0 is no effect and 100 is complete control
Procedure, shortened: as §1

[17] = test system: giant foxtail (Setaria faberii); test: Test A postemergence; details: Setaria faberi, post-emergence, 240 h, read-out: Plant response rating, Foxtail, Giant; for pest or weed control at 125 g/ha: 125 g ai/ha, Postemergence, visual injury after approximately 10 d, 0 to 100 scale where 0 is no effect and 100 is complete control
Procedure, shortened: as §1

[18] = test system: Galium (catchweed bedstraw, Galium aparine); test: Test A postemergence; details: Galium, post-emergence, 240 h, read-out: Plant response rating, Galium; for pest or weed control at 125 g/ha: 125 g ai/ha, Postemergence, visual injury after approximately 10 d, 0 to 100 scale where 0 is no effect and 100 is complete control
Procedure, shortened: as §1

[19] = 0 to 100 scale where 0 is no effect and 100 is complete control
[20] = 500 g ai/ha, postemergence, visual injury, 0 to 100 scale (0 no effect, 100 complete control), approx. 10 d
[21] = scale of 0 to 100 where 0 is no effect and 100 is complete control

CN1CC[C@H](c2ccc(OC(F)(F)F)cc2)[C@@H](C(=O)Nc2ccc(F)c(F)c2F)C1=O [Compound 1000] showed a pest or weed control at 125 g/ha [1] of 20%, a pest or weed control at 500 g/ha [1] of 40% and a pest or weed control at 125 g/ha [2] of 0%. It also gave a pest or weed control at 500 g/ha [2] of 0%, a pest or weed control at 125 g/ha [3] of 0% and a pest or weed control at 500 g/ha [3] of 60%. It also gave a pest or weed control at 125 g/ha (Kochia (Kochia scoparia) [4]) of 0%, a pest or weed control at 500 g/ha (Kochia (Kochia scoparia) [4]) of 0% and a pest or weed control at 125 g/ha [5] of 0%. It also gave a pest or weed control at 500 g/ha [5] of 20%, a pest or weed control at 125 g/ha [6] of 70% and a pest or weed control at 500 g/ha [6] of 90%. For the same compound, the pest or weed control at 250 g/ha [7, 19] was 0%, the pest or weed control at 250 g/ha [8, 19] was 0% and the pest or weed control at 250 g/ha [9, 19] was 90%. It also gave a pest or weed control at 250 g/ha (rice (Oryra sativa); [19]) of 0%, a plant injury at 125 g/ha [10] of 0% and a plant injury at 500 g/ha [10, 20] of 0%. For the same compound, the pest or weed control at 125 g/ha [11] was 0%, the pest or weed control at 500 g/ha [11, 20] was 0% and the pest or weed control at 125 g/ha [12] was 0%. For the same compound, the pest or weed control at 500 g/ha [12, 20] was 0%, the pest or weed control at 125 g/ha [13] was 0% and the pest or weed control at 500 g/ha [13, 20] was 0%. The pest or weed control at 125 g/ha [14] was 60%, the pest or weed control at 500 g/ha [14, 20] was 100% and the Corn plant response rating (crop injury, 0 = no effect, 100 = complete kill) at 125 g/ha (corn (Zea mays)) was 0%. For the same compound, the Corn plant response rating (crop injury, 0 = no effect, 100 = complete kill) at 500 g/ha (corn (Zea mays); [20]) was 20%, the pest or weed control at 125 g/ha (Kochia (Kochia scoparia) [15]) was 40% and the pest or weed control at 500 g/ha (Kochia (Kochia scoparia) [15]; [20]) was 40%. For the same compound, the pest or weed control at 125 g/ha [16] was 0%, the pest or weed control at 500 g/ha [16, 20] was 0% and the pest or weed control at 125 g/ha [17] was 0%. The pest or weed control at 500 g/ha [17, 20] was 50%, the pest or weed control at 125 g/ha [18] was 0% and the pest or weed control at 500 g/ha [18, 20] was 0%.

Work on O=C(Nc1ccccc1F)[C@H]1C(=S)NC[C@@H]1c1ccc(Cl)cc1 (racemic) [Compound 947] yielded a pest or weed control at 125 g/ha [1] of 0%, a pest or weed control at 500 g/ha [1] of 0% and a pest or weed control at 125 g/ha [2] of 0%. It also gave a pest or weed control at 500 g/ha [2] of 0%, a pest or weed control at 125 g/ha [3] of 30% and a pest or weed control at 500 g/ha [3] of 60%. For the same compound, the pest or weed control at 125 g/ha (Kochia (Kochia scoparia) [4]) was 0%, the pest or weed control at 500 g/ha (Kochia (Kochia scoparia) [4]) was 40% and the pest or weed control at 125 g/ha [5] was 0%. It also gave a pest or weed control at 500 g/ha [5] of 0%, a pest or weed control at 125 g/ha [6] of 50% and a pest or weed control at 500 g/ha [6] of 80%. For the same compound, the pest or weed control at 250 g/ha [7, 21] was 0%, the pest or weed control at 250 g/ha [8, 21] was 0% and the pest or weed control at 250 g/ha [9, 21] was 65%. The pest or weed control at 250 g/ha (rice (Oryra sativa); [21]) was 0%, the plant injury at 125 g/ha [10] was 0% and the pest or weed control at 125 g/ha [11] was 0%. For the same compound, the pest or weed control at 125 g/ha [12] was 0%, the pest or weed control at 125 g/ha [13] was 0% and the pest or weed control at 125 g/ha [14] was 20%. It also gave a Corn plant response rating (crop injury, 0 = no effect, 100 = complete kill) at 125 g/ha (corn (Zea mays)) of 0%, a pest or weed control at 125 g/ha (Kochia (Kochia scoparia) [15]) of 0% and a pest or weed control at 125 g/ha [16] of 0%. The pest or weed control at 125 g/ha [17] was 30% and the pest or weed control at 125 g/ha [18] was 0%.
